Here are results for nine molecules from patent publication US9732226B2, “Azo compound, ink containing azo compound, and display and electronic paper containing the ink” (MITSUBISHI CHEMICAL CORPORATION, priority 2012, dated 2017).

≈ marks a conversion by molar mass, not a printed value.

What all share (assay type): physicochemical
Series [1] is described as follows: Absorption spectrum of n-decane solution (absorption maximum wavelength, molar absorbance coefficient, color). To be noted: for ε / λmax / ε (molar absorbance coefficient): n-decane solution; for ε / λmax: same manner as for Example Compound 1; for Maximum Absorption Wavelength: 1 mg in 100 ml n-decane, quartz cell; for Color Tone: color of the solution of the compound in n-decane; for ε (molar absorbance coefficient): at absorption maximum wavelength. As to the method: <Method for Measurement of Absorption Maximum Wavelength λMax, Molar Absorbance Coefficient ε>
One mg of each of Example Compounds 1 to 4 and Comparative Example Compound was dissolved in 100 ml of n-decane solution to prepare a solution thereof, and using a quartz cell, the absorption spectrum thereof was measured with Hitachi Spectrophotometer U-4100. The resultant spectrum of the compound gave the absorption maximum wavelength λmax (nm) and the molar absorbance coefficient ε(L·mol^−1·cm^−1) thereof.

A short description of series [2]: Solubility C in n-decane at 5° C. (saturated solution, absorbance). To be noted: for εC / ε · C: product of ε and solubility C in n-decane at 5° C.; for C: solubility in n-decane at 5° C.; for solubility at 24 h: organic solvent or mixture, thermodynamic from solid, saturation solubility in n-decane at 5° C. As for the experimental part: <Method for Measurement of Solubility C>
The solubility C of Example Compounds 1 to 4 and Comparative Example Compound in n-decane solution was measured as follows.
The compound was added to the solvent until the undissolved residue remained, and ultrasonically treated at 30° C. for 30 minutes. After left at 5° C. for 24 hours, this was centrifuged and filtered through a 0.1 μm-filter using an ultracompact centrifuge (centrifugal force, 5200×g). The resultant saturated solution was diluted to have a suitable concentration, and using a quartz cell having an optical length of 10 mm, the absorption spectrum thereof was measured with Hitachi Spectrophotometer U-4100. From the relationship between the absorbance at the absorption maximum wavelength λmax (nm) and the previously-determined molar absorbance coefficient ε([…]) thereof, the concentration of each compound was determined, and the solubility C (mol·L^−1) at 5° C. and εC (cm^−1) thereof were calculated.

Series [3] is described as follows: Relative permittivity of solvent. To be noted: 22° C., measurement frequency 1 kHz. As for the experimental part: (§1) <Method for Measurement of Relative Permittivity of Solvent> The solvent was sandwiched between opposed parallel-plate ITO electrode-attached glass substrates having an electrode spacing of 50 μm, and using LCR Meter ZN2371 (manufactured by NF Corporation), the equivalent parallel capacitance thereof was measured at a measurement temperature of 22° C. and at a frequency of 1 kHz, given a test signal voltage of 5 V. Through calculation according to the following equation, the relative permittivity of the solvent was determined. Relative Permittivity=(equivalent parallel capacitance)×(electrode spacing)/(electrode area)/vacuum permittivity(ε0) <Method for Measurement of Solubility of Solvent in Water>

Series [4] in a line: Solubility of solvent in water. To be noted: pure water, thermodynamic from solid, 25° C. As for the experimental part:
as §1, with “The” for “<Method for Measurement of Relative Permittivity of Solvent> The”
30 g of pure water and 8 g of the solvent were put into a 110 ml-vial, and shaken in a thermostat bath at 25° C. at 200 shake/min for 4 hours. After thus shaken, the liquid was centrifuged (6000×g, 5 minutes), the aqueous layer was sampled, and the concentration of the dissolved solvent was quantified through gas chromatography.
For a mixed solvent comprising two or more different types of solvents, the solubility in water was determined by multiplying the solubility in water of each solvent constituting the mixed solvent by the molar fraction of each solvent, followed by totaling the resultant data. […]

In series [1], `CCCCC(CC)CNc1ccc(NCC(CC)CCCC)c2c1C(=O)c1ccc(C(=O)OCC(C)C)cc1C2=O` (stereo not drawn) [Blue Compound A, reference compound] registered a ε of 19000 L/mol/cm and a λmax of 668 nm. In series [2], this molecule yielded a εC of 3200 cm⁻¹ and a C of 0.170 mol/L.
One may read the solubility as the dissolved amount per volume that the medium holds. On to `C=CCn1c(N=Nc2ccc(N(CCC)CCC)cc2NC(C)=O)nc(C#N)c1C#N` [Comparative Example Compound, reference compound], for which, in series [1], the “Maximum Absorption Wavelength” value is on record as 512 nm, the “Color Tone” value is listed as “red” and the “ε (molar absorbance coefficient)” value was 34,000 L · mol^−1 · cm^−1. Also, in series [2], the solubility at 24 h was at most 0.01 mM and the “ε · C” value is recorded as 10 or less cm^−1.
`CCCCC(CC)CN(CC(CC)CCCC)c1ccc(N=Nc2c(C#N)cc(C(F)(F)F)cc2C#N)c(NC(C)=O)c1` (stereo not drawn) [Example Compound 1]: in series [1], the “Maximum Absorption Wavelength” value is 584 nm, the “Color Tone” value was “violet” and the “ε (molar absorbance coefficient)” value is 80,000 L · mol^−1 · cm^−1. Moreover, in series [2], the solubility at 24 h came to 20 mM (≈ 11.9 mg/mL) and the “ε · C” value is on record as 1,600 cm^−1.
As for `CCCCC(CC)COC(=O)c1cc(C#N)c(N=Nc2ccc(N(CC(CC)CCCC)CC(CC)CCCC)cc2NC(=O)CC)c(C#N)c1` (stereo not drawn) [Example Compound 2], in series [1], the “Maximum Absorption Wavelength” value stood at 591 nm, the “Color Tone” value is “violet” and the “ε (molar absorbance coefficient)” value is recorded as 80,000 L · mol^−1 · cm^−1. In addition, in series [2], the solubility at 24 h is 160 mM (≈ 112 mg/mL) and the “ε · C” value was 13,000 cm^−1.
On to `CCCCC(=O)Nc1cc(N(CC(CC)CCCC)CC(CC)CCCC)ccc1N=Nc1c(C#N)cc(C(F)(F)F)cc1C#N` (stereo not drawn) [Example Compound 3], for which, in series [1], the “Maximum Absorption Wavelength” value is 585 nm, the “Color Tone” value is “violet” and the “ε (molar absorbance coefficient)” value is on record as 75,000 L · mol^−1 · cm^−1. For the same molecule, in series [2], the solubility at 24 h came out at 350 mM (≈ 224 mg/mL) and the “ε · C” value was 26,000 cm^−1.
Regarding `CCCCC(CC)COC(=O)c1cc(C#N)c(N=Nc2ccc(N(CC(CC)CCCC)CC(CC)CCCC)cc2NC(C)=O)c(C#N)c1` (stereo not drawn) [Example Compound 4], in series [1], the “Maximum Absorption Wavelength” value worked out at 590 nm, the “Color Tone” value was “violet” and the “ε (molar absorbance coefficient)” value is 80,000 L · mol^−1 · cm^−1. Also, in series [2], the solubility at 24 h came out at 75 mM (≈ 51.4 mg/mL) and the “ε · C” value is listed as 6,000 cm^−1.
`CCCCC(CC)CN(CC(CC)CCCC)c1ccc(N=Nc2snc(CC)c2C#N)c(C)c1` (stereo not drawn) [Red Compound A]: in series [1], the ε amounted to 4600 L/mol/cm and the λmax amounted to 530 nm. In series [2], the εC worked out at 3900 cm⁻¹ and the C stood at 0.086 mol/L.
In the case of `CCCCc1nn(C(C)(C)C)c(O)c1N=Nc1ccc(N=Nc2ccccc2)cc1` [Yellow Compound A, reference compound], in series [1], the ε stood at 25000 L/mol/cm and the λmax is reported as 417 nm. In series [2], this molecule registered a εC of 1900 cm⁻¹ and a C of 0.076 mol/L.
`CCCCCCCCCC` [n-decane] registered a relative permittivity in series [3] of 2.0. The same molecule displayed a solubility at 4 h in series [4] of at most 1 µg/mL.
